Results from patent US11654094B2, “Composition comprising benzoic acid amide compound and cyclodextrin solubilizing agent” (AMOREPACIFIC CORPORATION, priority 2017, dated 2023).
Converted amounts (≈) assume the structure as drawn. Read-outs that look alike come from different tables or passages of the source.

Experiments:
melanin synthesis = conditions: background statement; verified through cell and artificial skin tests; cited from earlier work
[1] = pH and solubility of HP-β-CD/DBAB compositions; format: physicochemical; conditions: HP-β-CD and DBAB mixed at a weight ratio of 1:1
Source text: In addition to investigation of the solubility improvement with varying pH, the solubility of the composition was investigated with varying the pH of the composition and the weight ratio of HP-β-CD and DBAB as shown in Table 3 below.

MITF = conditions: through the cAMP-PKA-CREB signal pathway; background statement; cited from earlier work
[2] = Solubility of DBAB achieved by solvents; format: physicochemical; conditions: organic solvent or mixture
[3] = Amount of solubilizers needed to dissolve DBAB in water (synergy of cyclodextrin with other solubilizers); format: physicochemical; conditions: for solubility of the composition: 0.1% by weight DBAB
Source text: The synergistic effect of cyclodextrin as a solubilizer of the present invention in combination with other solubilizers (a second solubilizer and a third solubilizer) was investigated.

[4] = Solubility of DBAB for each type of cyclodextrin and their 1:1 combinations (amount of CD required); format: physicochemical; conditions: single cyclodextrin or 1:1 weight ratio combination
Protocol: In order to investigate the solubility of one part by weight of DBAB for each type of cyclodextrin and the synergistic effect between cyclodextrins, the solubility of each of α-CD, γ-CD, HP-α-CD, HP-β-CD and HP-γ-CD and the solubility of their 1:1 weight ratio combinations was determined, as shown in Table 4 below.

[5] = Solubility of DBAB at various weight ratios of HP-β-CD and γ-CD, total CD 0.5%; conditions: 0.2% by weight of each of HP-β-CD and γ-CD, test method of Table 5
Protocol: In this case, 10% by weight of PEG.PPG-17.6 copolymer, 0.1% by weight of DBAB, 39.4% by weight of propanediol, 50% by weight of water and 0.5% by weight of the total CD were used.
In addition, the test method of Table 5 was carried out by using 0.2% by weight of each of HP-β-CD and γ-CD with an addition of 0.1% by weight of HP-α-CD, HP-γ-CD, α-CD or β-CD.

Compound: COc1cc(OC)c(C23CC4CC(CC(C4)C2)C3)cc1C(=O)NCc1ccc(O)cc1O [DBAB, 5-adamantan-1-yl-N-(2,4-dihydroxybenzyl)-2,4-dimethoxy-benzoic acid amide]
- melanin synthesis (melanin synthesis): inhibiting melanin synthesis
- pH at which the composition has improved solubility [1]: ≥ 12.72
- expression of MITF (MITF): reduces the expression of MITF
- solubility ([2]; PEG.PPG-17.6 copolymer, read-out: solubility of DBAB achieved by PEG.PPG-17.6 copolymer): 81.3 mg/mL (≈ 186 mM)
- solubility ([2]; propanediol, read-out: solubility of DBAB achieved by propanediol): 5.92 mg/mL (≈ 13.5 mM)
- solubility of the composition ([3]; 30% by weight PEG.PPG-17.6 copolymer, 0.6% by weight HP-β-CD): transparently dissolved
- solubility of the composition ([3]; 50% by weight PEG.PPG-17.6 copolymer, balance water): transparently dissolved

Compound: hydroxypropyl-β-cyclodextrin [HP-β-CD]
- amount of CD required (weight ratio CD:DBAB, x:1) to transparently dissolve one part by weight of DBAB [4]: 20
- PEG.PPG-17.6 copolymer replaced by 0.6% of HP-β-CD ([3]; composition comprising DBAB): 20%
- PEG.PPG-17.6 copolymer replaced by 0.1% by weight of HP-β-CD ([3]; composition with 0.1% by weight of DBAB): 20 % by weight

Compound: OC[C@H]1O[C@@H]2O[C@H]3[C@H](O)[C@@H](O)[C@@H](O[C@H]4[C@H](O)[C@@H](O)[C@@H](O[C@H]5[C@H](O)[C@@H](O)[C@@H](O[C@H]6[C@H](O)[C@@H](O)[C@@H](O[C@H]7[C@H](O)[C@@H](O)[C@@H](O[C@H]1[C@H](O)[C@H]2O)O[C@@H]7CO)O[C@@H]6CO)O[C@@H]5CO)O[C@@H]4CO)O[C@@H]3CO [α, α-cyclodextrin]
- amount of CD required (weight ratio CD:DBAB, x:1) to transparently dissolve one part by weight of DBAB [4]: >20
- effect on solubility of DBAB of adding 0.1% by weight of a further cyclodextrin [5]: did not improve the solubility

Compound: hydroxypropyl-α-cyclodextrin [HPα]
- amount of CD required (weight ratio CD:DBAB, x:1) to transparently dissolve one part by weight of DBAB [4]: >20
- effect on solubility of DBAB of adding 0.1% by weight of a further cyclodextrin [5]: did not improve the solubility

Compound: OC[C@H]1O[C@@H]2O[C@H]3[C@H](O)[C@@H](O)[C@@H](O[C@H]4[C@H](O)[C@@H](O)[C@@H](O[C@H]5[C@H](O)[C@@H](O)[C@@H](O[C@H]6[C@H](O)[C@@H](O)[C@@H](O[C@H]7[C@H](O)[C@@H](O)[C@@H](O[C@H]8[C@H](O)[C@@H](O)[C@@H](O[C@H]1[C@H](O)[C@H]2O)O[C@@H]8CO)O[C@@H]7CO)O[C@@H]6CO)O[C@@H]5CO)O[C@@H]4CO)O[C@@H]3CO [β, β-cyclodextrin]
- amount of CD required (weight ratio CD:DBAB, x:1) to transparently dissolve one part by weight of DBAB [4]: >20
- effect on solubility of DBAB of adding 0.1% by weight of a further cyclodextrin [5]: did not improve the solubility

Compound: hydroxypropyl-γ-cyclodextrin [HPγ]
- amount of CD required (weight ratio CD:DBAB, x:1) to transparently dissolve one part by weight of DBAB [4]: >20
